PMC11707430, “Novel antibiotics against Staphylococcus aureus without detectable resistance by targeting proton motive force and FtsH” (MedComm, 2025)
≈ marks a conversion by molar mass, not a printed value.

Tests used:
S. aureus biofilm [1] = experiment: Biofilm determination by crystal violet staining; type: cell-based
Protocol: Biofilm determination by crystal violet staining. The biofilm was formed as described above. The planktonic (non-adherent) bacteria were removed by washing the wells with PBS. Added a solution of 0.15% (wt/vol) crystal violet to each well and incubated for 15 min at room temperature. Then, the plates were gently wash with PBS to remove excess crystal violet. One hundred microliters of ethanol were added to each well to solubilize the crystal violet that has bound to the biofilm. The absorbance at 570nm (A570nm) of the solubilized crystal violet was measured with a microplate reader^6.
Biofilm determination by XTT assay. To determine the biofilm inhibition, overnight cultures of S. aureus were diluted with TSB containing 2-fold diluted antimicrobials at the ratio of 1: 100 and added to a 96-well plate. After incubation statically at 37 ℃ for 24h, the supernatant was carefully removed and washed with PBS. (2,3-Bis-(2-methoxy-4-nitro-5-sulfophenyl)-2H-tetrazolium-5-carboxanilide) (XTT, 0.2 mg/ml) and Phenazin (methylsufate) (PMS, 0.02 mg/ml) were mixed with 1× PBS and added to each well of the 96-well plate (100 μL/well). The plate was then incubated for 3h in the dark, and the absorbance was measured at 490 nm (A490nm). For biofilm eradication, overnight cultures of S. aureus were diluted with fresh TSB at 1:100 and incubated for 24h to pre-form biofilms. […]

S. aureus [2] = experiment: Drug combination by checkerboard dilution assay; type: cell-based; details: STK848198 with SM, TOB, AMP, fosfomycin, SIS, gentamycin
Protocol: Drug combination assay. The potential combinational antimicrobial effects between individual drugs were determined by checkerboard dilution assay. Briefly, overnight cultured S. aureus was diluted in MH broth to ~1× 10^6 CFU/mL. Compounds were two-fold diluted by MH broth, then 50 μL of each compound were added to each well vertically and horizontally, respectively, in a 96-well cell culture plate. […] The fractional inhibitory concentration index (FICI) was calculated as (MICA in combination/MICA alone) + (MICB in combination/MICB alone)^20.

S. aureus [3] = experiment: Peritonitis-sepsis model; type: in vivo, ICR mice; details: i.p., 24 h postinfection
Protocol: Peritonitis-sepsis model. Six to seven-week-old female ICR mice were included. […] Mice were injected with 500 μL of the suspension in the presence of 5% mucin by i.p.. An hour post-infection, the mice were administered with: 1) EL+ethanol, 2) […]-0546 (30 mg/kg), and 3) STK848198 (30 mg/kg) alone or in combination with ampicillin (AMP, 25 mg/kg)^38 or amikacin (AMK, 25 mg/kg).

K. pneumoniae = experiment: MIC determination by microbroth dilution; type: cell-based; details: Klebsiella pneumoniae, ATCC700603; ATCC 700603
Protocol: (§1) Minimal inhibitory concentration (MIC) determination. The detection of MIC was performed by the microbroth dilution method with reference to the previously report by Wang et al^2. Briefly, the fresh bacterial suspension was adjusted to a McF standard equivalent of 0.5 (~1.5 × 10^8 CFU/mL) and then 100-fold diluted with MH broth. Fifty microliters of bacterial suspension with equal volume of serially diluted compounds (1-128 µg/mL) were added into a 96-well cell plate (Corning Costar, the United States) and incubated at 37°C for 16-18 h. The bacterial suspension without compounds was used as a negative control. The lowest concentration that inhibited visible bacterial growth was considered as the value of MIC.

E. faecium = experiment: MIC determination by microbroth dilution; type: cell-based; details: Enterococcus faecium
Protocol: as §1

E. coli = experiment: MIC determination by microbroth dilution; type: cell-based; details: Escherichia coli, ATCC25922; ATCC 25922
Protocol: as §1

A. baumannii = experiment: MIC determination by microbroth dilution; type: cell-based; details: Acinetobacter baumannii, ATCC19606; ATCC 19606
Protocol: as §1

S. epidermidis = experiment: MIC determination by microbroth dilution; type: cell-based; details: Staphylococcus epidermidis
Protocol: as §1

E. faecalis = experiment: MIC determination by microbroth dilution; type: cell-based; details: Enterococcus faecalis
Protocol: as §1

P. aeruginosa = experiment: MIC determination by microbroth dilution; type: cell-based; details: Pseudomonas aeruginosa, PAO1
Protocol: as §1

S. aureus ATCC 43300 = experiment: Periprosthetic joint infection (PJI) model; type: in vivo, ICR mice; details: i.p.
S. aureus biofilm [4] = experiment: Biofilm determination by XTT assay; type: cell-based
Protocol: Biofilm determination by XTT assay. To determine the biofilm inhibition, overnight cultures of S. aureus were diluted with TSB containing 2-fold diluted antimicrobials at the ratio of 1: 100 and added to a 96-well plate. After incubation statically at 37 ℃ for 24h, the supernatant was carefully removed and washed with PBS. (2,3-Bis-(2-methoxy-4-nitro-5-sulfophenyl)-2H-tetrazolium-5-carboxanilide) (XTT, 0.2 mg/ml) and Phenazin (methylsufate) (PMS, 0.02 mg/ml) were mixed with 1× PBS and added to each well of the 96-well plate (100 μL/well). The plate was then incubated for 3h in the dark, and the absorbance was measured at 490 nm (A490nm). For biofilm eradication, overnight cultures of S. aureus were diluted with fresh TSB at 1:100 and incubated for 24h to pre-form biofilms. Subsequently, the supernatant was removed and washed with PBS, and 200 μL of TSB in the presence of 2-fold diluted antimicrobials was added to each well. After incubation at 37 ℃ for 24h, the supernatant was removed and stained with XTT as described above^7.

Cc1nc2c(-c3ccc(Cl)cc3)cnn2c(O)c1Cc1ccccc1 [STK848198]
concentration inhibiting biofilm biomass formation (S. aureus biofilm [1]; biofilm inhibition): 0.25 µg/mL
concentration eradicating preformed biofilm biomass (S. aureus biofilm [1]; preformed biofilm): 2 µg/mL
FICI (S. aureus [2]): ≤ 0.5
bacterial loads in liver, spleen, lung, and kidney (S. aureus [3]; STK848198 30 mg/kg combined with AMP 25 mg/kg): significantly reduced the bacterial loads
bacterial loads in organs (S. aureus [3]; single use, vs vehicle): no statistical difference
MIC (K. pneumoniae): > 32 µg/mL
MIC (E. faecium; ATCC19434, ATCC 19434): 8 µg/mL (≈ 22.9 µM)
MIC (E. faecium; U101, vancomycin resistant strain): 4 µg/mL (≈ 11.4 µM)
MIC (E. coli): > 32 µg/mL
MIC (A. baumannii): > 32 µg/mL
MIC (S. epidermidis; ATCC12228, ATCC 12228): 1 µg/mL (≈ 2.86 µM)
MIC (S. epidermidis; RP62A): 1 µg/mL (≈ 2.86 µM)
MIC (E. faecalis; ATCC29212, ATCC 29212): 4 µg/mL (≈ 11.4 µM)
MIC (E. faecalis; ATCC51299, ATCC 51299, vancomycin resistant strain): 4 µg/mL (≈ 11.4 µM)
MIC (P. aeruginosa): > 32 µg/mL
bacterial viable cell loads in infected joint (S. aureus ATCC 43300; day 5, AMP 25 mg/kg combined with STK848198 30 mg/kg): effectively reduce the bacterial viable cell loads
bacterial loads in the joint and its surrounding tissue (S. aureus ATCC 43300; day 7, alone or in combination): reduce the bacterial loads
concentration inhibiting biofilm viability (S. aureus biofilm [4]; biofilm inhibition): 0.125 µg/mL
concentration reducing preformed biofilm viability (S. aureus biofilm [4]; preformed biofilm): 0.5 µg/mL
